Results from patent publication US20260207569A1, “LPA1 ANTAGONISTS FOR TREATING INTERSTITIAL LUNG DISEASE” (Bristol-Myers Squibb Company, priority 2022, published 2026).
Entries after “also recorded” stand apart in the source; their conditions may differ.

System: participants with IPF
Test: Phase 2 IPF cohort efficacy: rate of change in ppFVC / FVC to Week 26
Assay type: in vivo, human
Description: A total of 278 participants with IPF were randomized and 276 participants were treated as of […] analyses data cut-off (4 Aug. 2022). Male and female participants ≥40 years of age with IPF and percent predicted forced vital capacity (ppFVC) ≥40% and percent predicted DLCO (ppDLCO) ≥25%; diagnosed within 7 years of screening; having a centrally-read chest HRCT obtained at screening that was consistent with UIP or probable UIP, or having a lung biopsy consistent with UIP, were eligible to enter the study. The mean baseline ppFVC for all subjects was 76.5%. In the primary IPF cohort, participants were randomized (1:1:1) to receive 30 mg or 60 mg Compound A or placebo (PBO) twice daily for 26 weeks. Participants were stratified by standard of care (SoC) IPF therapy (pirfenidone versus nintedanib versus none) and region (Japan versus Rest of World) at randomization.
The primary objective of the study was to determine the rate of change in ppFVC from baseline to Week 26. The primary objective was evaluated with a two estimand framework to handle the intercurrent event of dose reduction to 10 mg BID or matching PBO when pre-specified low BP criteria is met. The primary estimand is adopted to estimate treatment effect when dose reduction is implemented. The supplementary estimand is adopted to estimate the effect of treatment without dose reduction.
Analysis Strategy: The primary estimand was to evaluate the efficacy of Compound A at 30 mg or 60 mg twice daily, compared to PBO in IPF participants who met the enrollment criteria, with or without use of SoC. The rate of decline in ppFVC (%) from baseline to Week 26 was compared using the difference between each dose and PBO as a population level summary regardless of dose reduction or treatment discontinuation for any reason (treatment policy strategy).
Analysis Strategy: The supplementary estimand for the primary objective is to evaluate the efficacy of Compound A at 30 mg or 60 mg twice daily without dose reduction, compared to the PBO in IPF subjects who met the enrollment criteria, with or without use of SoC. The rate of decline in ppFVC (%) from baseline to Week 26 has been compared using the difference between each dose and PBO as a population level summary regardless of treatment discontinuation for any reason (treatment policy strategy). In the event of dose reduction, data collected after dose reduction will not be considered relevant to the treatment effect of interest and therefore, will be treated as missing (while-on-treatment strategy).

## CCCN(C)C(=O)OCc1c(-c2ccc(O[C@H]3CCC[C@H](C(=O)O)C3)c(C)n2)nnn1C [Compound A, (1S,3S)-3-((2-methyl-6-(1-methyl-5-(((methyl(propyl)carbamoyl)-oxy)methyl)-1H-1,2,3-triazol-4-yl)pyridin-3-yl)oxy)cyclohexane-1-carboxylic acid]
IPF cohort
  Treatment differences in rates of change in ppFVC with and without background antifibrotic: consistent between both groups
IPF, 30 mg BID, overall population
  Efficacy vs PBO: did not demonstrate efficacy compared to PBO
IPF, 60 mg BID, SoC (nintedanib or pirfenidone) and no SoC
  Response by background SoC subgroup vs PBO: favorable responses on the primary endpoint; also recorded: favorable efficacy; also recorded: favorable impact on FVC compared with PBO when used alone or on background therapy with nintedanib or pirfenidone
IPF, 60 mg BID, Week 26, overall population
  Treatment response (rate of decline of ppFVC and FVC) vs PBO: demonstrated favorable treatment responses versus PBO
IPF, 60 mg BID, baseline to Week 26, supplementary estimand, Overall
  Slope difference (SE) in rate of decline in FVC, 60 mg - PBO: 61.4 (29.35) mL
IPF, 60 mg BID, primary estimand, not on background SoC
  Relative treatment benefit (ppFVC decline) compared to PBO: 113%
IPF, 60 mg BID, primary estimand, on background SoC
  Relative treatment benefit (ppFVC decline) compared to PBO: 39%
IPF, 60 mg BID, supplementary estimand, not on background SoC
  Relative treatment benefit (ppFVC decline) compared to PBO: 123%
IPF, 60 mg BID, supplementary estimand, on background SoC
  Relative treatment benefit (ppFVC decline) compared to PBO: 44%
